Test results reported in patent US6846818B2, “Selective inhibitors of cyclooxygenase-2” (Pfizer Inc., priority 2002, dated 2005).

Assays:
[1] = target: T1, COX-1 (Homo sapiens, UniProt P23219); assay: Cell-based COX-1 inhibition; details: assay/species not specified
T1 construct: endogenous in cells; host or cells: one of: human washed platelets, canine washed platelets, or feline/canine/human whole blood
Description: Human peripheral blood obtained from healthy volunteers can be diluted to 1/10 volume with 3.8% sodium citrate solution. The platelet-rich plasma immediately obtained can be washed with 0.14 M sodium chloride containing 12 mM Tris-HCl (pH 7.4) and 1.2 mM EDTA. Platelets can then be washed with platelet buffer (Hanks buffer (Ca free) containing 0.2% BSA and 20 mM Hepes). Finally, the human washed platelets (HWP) can be suspended in platelet buffer at the concentration of 2.85×10^8 cells/ml and stored at room temperature until use. The HWP suspension (70 μl aliquots, final 2.0×10^7 cells/ml) can be placed in a 96-well U bottom plate and 10 μl aliquots of 12.6 mM calcium chloride added. […] The reaction can be stopped by addition of EDTA (final 7.7 mM) and TxB2 in the supernatant quantitated by using a radioimmunoassay kit (Amersham) according to the manufacturer's procedure.
Test drug compounds can be solubilized and diluted the day before the assay can be to be conducted with 0.1 mL of DMSO/9.9 mL of Hank's balanced salts solution (HBSS) and stored overnight at 4° C. […] The pg/mL of TXB2 can be calculated from the standard line included on each plate, from which it can be possible to calculate the percent inhibition of COX-1 and the IC50 values for the test drug compounds. […]
COX-2 selectivity can be determined by ratio in terms of IC50 value of COX-1 inhibition to COX-2 inhibition. […]

[2] = target: T2, COX-2 (Homo sapiens, UniProt P35354); assay: Cell-based COX-2 inhibition (canine, feline or human assays); details: from IC50 COX-1 vs COX-2
T2 sequence (P35354 18-604): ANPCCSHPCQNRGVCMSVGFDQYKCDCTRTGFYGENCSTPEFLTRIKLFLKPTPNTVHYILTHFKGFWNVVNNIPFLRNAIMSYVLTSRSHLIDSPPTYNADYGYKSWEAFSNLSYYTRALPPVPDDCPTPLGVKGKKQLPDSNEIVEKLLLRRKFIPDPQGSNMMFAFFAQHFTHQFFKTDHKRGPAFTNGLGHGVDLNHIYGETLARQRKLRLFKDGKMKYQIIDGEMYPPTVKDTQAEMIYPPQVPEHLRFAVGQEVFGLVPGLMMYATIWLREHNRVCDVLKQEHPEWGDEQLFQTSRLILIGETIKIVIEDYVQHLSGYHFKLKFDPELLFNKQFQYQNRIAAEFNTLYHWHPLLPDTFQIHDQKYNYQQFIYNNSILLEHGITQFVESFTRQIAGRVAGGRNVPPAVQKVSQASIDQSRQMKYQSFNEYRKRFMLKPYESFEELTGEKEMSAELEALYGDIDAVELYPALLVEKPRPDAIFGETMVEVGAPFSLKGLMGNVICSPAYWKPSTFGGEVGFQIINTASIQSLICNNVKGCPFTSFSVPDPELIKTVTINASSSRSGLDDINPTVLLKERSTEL
Description: The human cell based COX-2 assay can be carried out as previously described (Moore et al., Inflam. Res., 45, 54, 1996). Confluent human umbilical vein endothelial cells (HUVECs, Morinaga) in a 96-well flat bottom plate can be washed with 80 ml of RPMI1640 containing 2% FBS and incubated with hIL-1β (final concentration 300 U/ml, R & D Systems) at 37° C. for 24 hours. After washing, the activated HUVECs can be incubateed with test compound (final concentration; 0.1 nM-1 μM) dissolved in DMSO (final concentration; less than 0.01%) at 37° C. for 20 minutes and stimulated with A23187 (final concentration […]) in Hanks buffer containing 0.2% BSA, 20 mM Hepes at 37° C. for 15 minutes. 6-Keto-PGF1α, stable metabolite of PGI2, in the supernatant can be quantitated by using a radioimmunoassay method (antibody; Preseptive Diagnostics, SPA; Amersham).
A canine histocytoma (macrophage-like) cell line from the American Type Culture Collection designated as DH82, can be used in setting up the protocol for evaluating the COX-2 inhibition activity of various test drug compounds. […] The EIA can be performed for prostaglandin E2 (PGE2) and the pg/mL concentration of PGE2 can be calculated from the standard line included on each plate. […] The results are averaged and a single COX-1:COX-2 ratio is calculated. […]

T1 sequence (P23219 24-599): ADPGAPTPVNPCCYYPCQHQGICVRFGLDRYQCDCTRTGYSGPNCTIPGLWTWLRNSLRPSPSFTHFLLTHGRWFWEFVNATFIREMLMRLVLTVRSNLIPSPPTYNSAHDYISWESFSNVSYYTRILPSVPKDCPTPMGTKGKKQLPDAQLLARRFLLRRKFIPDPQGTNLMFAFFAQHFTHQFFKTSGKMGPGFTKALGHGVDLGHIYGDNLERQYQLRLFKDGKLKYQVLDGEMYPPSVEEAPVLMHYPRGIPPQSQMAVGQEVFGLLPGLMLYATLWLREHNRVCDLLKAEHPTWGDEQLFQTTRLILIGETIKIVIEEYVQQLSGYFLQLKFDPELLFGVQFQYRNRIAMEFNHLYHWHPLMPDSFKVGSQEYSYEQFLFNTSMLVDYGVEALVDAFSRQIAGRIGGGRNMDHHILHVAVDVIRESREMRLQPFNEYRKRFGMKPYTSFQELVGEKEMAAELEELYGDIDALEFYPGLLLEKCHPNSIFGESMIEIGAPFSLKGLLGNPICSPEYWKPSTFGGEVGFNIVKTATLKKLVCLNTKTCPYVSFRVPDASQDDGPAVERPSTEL

Cc1cc(C)cc(NC(=O)N2C(=O)C(C(=O)c3cnccn3)c3cc(C)c(F)cc32)c1 (centres unmarked) [6-Fluoro-5-methyl-2-oxo-3-(pyrazine-2-carbonyl)-2,3-dihydro-indole-1-carboxylic acid (3,5-dimethyl-phenyl)-amide]
IC50 [1]: > 150 µM
selectivity for COX-2 (COX-1/COX-2 IC50) [2]: no selectivity for COX-2
